Laboratory results from the supplement of paper PMC13207355.
Counter-ions that a name gives are not always drawn.

Tests used:
Conditions in all cases: exposure time: 72 h
E13 [1] = patient-derived glioblastoma stem cells of classical subtype; experiment: phenotypic distance (Euclidean, principal components) from DMSO controls (arbitrary units); higher = stronger morphological change
E28 [2] = patient-derived glioblastoma stem cells of classical subtype; experiment: as above
FT3469 [3] = normal neural stem cell line; experiment: as above
E57 [4] = patient-derived glioblastoma stem cells of mesenchymal subtype; experiment: as above
E31 [5] = patient-derived glioblastoma stem cells of proneural subtype; experiment: as above
E21 [6] = patient-derived glioblastoma stem cells of mesenchymal subtype; experiment: as above
E34 [7] = patient-derived glioblastoma stem cells of proneural subtype; experiment: as above
E13 [8] = experiment: surviving fraction (nuclei count normalised to DMSO); higher = more cells surviving (less toxic)
E28 [9] = experiment: as above
FT3469 [10] = experiment: as above
E57 [11] = experiment: as above
E31 [12] = experiment: as above
E21 [13] = experiment: as above
E34 [14] = experiment: as above
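Wherever phenotypic distance (Euclidean, principal components) from DMSO controls is given: cell Painting imaging in 384-well plates, CellProfiler features reduced to at least 20 principal components, Euclidean distance versus same-plate DMSO vehicle wells (0.1% v/v), median over six images per well.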
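Wherever surviving fraction (nuclei count normalised to DMSO) is given: nuclei counted by high-content imaging of Hoechst-stained cells in laminin-coated 384-well plates, relative to 0.1% DMSO vehicle wells, with staurosporine as cell-death control.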

Nc1ccn([C@@H]2O[C@H](CO)[C@@H](O)C2(F)F)c(=O)n1 [Gemcitabine HCl]
Conditions | phenotypic distance | surviving fraction
E13 [1], 4.1 nM | 5.82 | –
E13 [1], 12.3 nM | 5.84 | –
E13 [1], 37 nM | 5.64 | –
E13 [1], 111.1 nM | 4.94 | –
E13 [1], 333.3 nM | 6.22 | –
E13 [1], 1000 nM | 5.7 | –
E13 [1], 3000 nM | 5.74 | –
E13 [8], 4.1 nM | – | 0.327
E13 [8], 12.3 nM | – | 0.326
E13 [8], 37 nM | – | 0.331
E13 [8], 111.1 nM | – | 0.351
E13 [8], 333.3 nM | – | 0.32
E13 [8], 1000 nM | – | 0.333
E13 [8], 3000 nM | – | 0.352
E21 [6], 4.1 nM | 4.04 | –
E21 [6], 12.3 nM | 4.48 | –
E21 [6], 37 nM | 4.76 | –
E21 [6], 111.1 nM | 5.02 | –
E21 [6], 333.3 nM | 4.71 | –
E21 [6], 1000 nM | 4.97 | –
E21 [6], 3000 nM | 4.67 | –
E21 [13], 4.1 nM | – | 0.161
E21 [13], 12.3 nM | – | 0.173
E21 [13], 37 nM | – | 0.126
E21 [13], 111.1 nM | – | 0.143
E21 [13], 333.3 nM | – | 0.147
E21 [13], 1000 nM | – | 0.129
E21 [13], 3000 nM | – | 0.0999
E28 [2], 4.1 nM | 3.94 | –
E28 [2], 12.3 nM | 3.54 | –
E28 [2], 37 nM | 3.74 | –
E28 [2], 111.1 nM | 3.43 | –
E28 [2], 333.3 nM | 3.31 | –
E28 [2], 1000 nM | 3.19 | –
E28 [2], 3000 nM | 4.17 | –
E28 [9], 4.1 nM | – | 0.359
E28 [9], 12.3 nM | – | 0.438
E28 [9], 37 nM | – | 0.376
E28 [9], 111.1 nM | – | 0.456
E28 [9], 333.3 nM | – | 0.401
E28 [9], 1000 nM | – | 0.361
E28 [9], 3000 nM | – | 0.264
E31 [5], 4.1 nM | 3.35 | –
E31 [5], 12.3 nM | 2.57 | –
E31 [5], 37 nM | 3.01 | –
E31 [5], 111.1 nM | 2.66 | –
E31 [5], 333.3 nM | 2.37 | –
E31 [5], 1000 nM | 3 | –
E31 [5], 3000 nM | 3.64 | –
E31 [12], 4.1 nM | – | 0.147
E31 [12], 12.3 nM | – | 0.249
E31 [12], 37 nM | – | 0.161
E31 [12], 111.1 nM | – | 0.229
E31 [12], 333.3 nM | – | 0.201
E31 [12], 1000 nM | – | 0.199
E31 [12], 3000 nM | – | 0.161
E34 [7], 4.1 nM | 3.49 | –
E34 [7], 12.3 nM | 2.98 | –
E34 [7], 37 nM | 3.41 | –
E34 [7], 111.1 nM | 4.74 | –
E34 [7], 333.3 nM | 3.17 | –
E34 [7], 1000 nM | 2.85 | –
E34 [7], 3000 nM | 2.83 | –
E34 [14], 4.1 nM | – | 0.494
E34 [14], 12.3 nM | – | 0.545
E34 [14], 37 nM | – | 0.509
E34 [14], 111.1 nM | – | 0.52
E34 [14], 333.3 nM | – | 0.549
E34 [14], 1000 nM | – | 0.496
E34 [14], 3000 nM | – | 0.415
E57 [4], 4.1 nM | 6.66 | –
E57 [4], 12.3 nM | 8.21 | –
E57 [4], 37 nM | 6.89 | –
E57 [4], 111.1 nM | 7.27 | –
E57 [4], 333.3 nM | 7.04 | –
E57 [4], 1000 nM | 7.07 | –
E57 [4], 3000 nM | 6.77 | –
E57 [11], 4.1 nM | – | 0.168
E57 [11], 12.3 nM | – | 0.168
E57 [11], 37 nM | – | 0.156
E57 [11], 111.1 nM | – | 0.165
E57 [11], 333.3 nM | – | 0.139
E57 [11], 1000 nM | – | 0.159
E57 [11], 3000 nM | – | 0.149
FT3469 [3], 4.1 nM | 1.82 | –
FT3469 [3], 12.3 nM | 1.99 | –
FT3469 [3], 37 nM | 2.01 | –
FT3469 [3], 111.1 nM | 2.15 | –
FT3469 [3], 333.3 nM | 1.98 | –
FT3469 [3], 1000 nM | 1.8 | –
FT3469 [3], 3000 nM | 1.5 | –
FT3469 [10], 4.1 nM | – | 0.53
FT3469 [10], 12.3 nM | – | 0.842
FT3469 [10], 37 nM | – | 0.616
FT3469 [10], 111.1 nM | – | 0.663
FT3469 [10], 333.3 nM | – | 0.566
FT3469 [10], 1000 nM | – | 0.568
FT3469 [10], 3000 nM | – | 0.645

COc1ccc([C@@H]2CC(=O)c3c(O)cc(O[C@@H]4O[C@H](CO[C@@H]5O[C@@H](C)[C@H](O)[C@@H](O)[C@H]5O)[C@@H](O)[C@H](O)[C@H]4O)cc3O2)cc1O [Hesperidin]
Conditions | phenotypic distance | surviving fraction
E13 [1], 4.1 nM | 0.619 | –
E13 [1], 12.3 nM | 0.532 | –
E13 [1], 37 nM | 0.507 | –
E13 [1], 111.1 nM | 0.462 | –
E13 [1], 333.3 nM | 0.682 | –
E13 [1], 1000 nM | 0.572 | –
E13 [1], 3000 nM | 0.438 | –
E13 [8], 4.1 nM | – | 0.863
E13 [8], 12.3 nM | – | 0.95
E13 [8], 37 nM | – | 0.946
E13 [8], 111.1 nM | – | 0.963
E13 [8], 333.3 nM | – | 0.941
E13 [8], 1000 nM | – | 1.04
E13 [8], 3000 nM | – | 0.96
E21 [6], 4.1 nM | 0.723 | –
E21 [6], 12.3 nM | 1.01 | –
E21 [6], 37 nM | 0.467 | –
E21 [6], 111.1 nM | 0.825 | –
E21 [6], 333.3 nM | 0.905 | –
E21 [6], 1000 nM | 0.753 | –
E21 [6], 3000 nM | 1.01 | –
E21 [13], 4.1 nM | – | 0.916
E21 [13], 12.3 nM | – | 0.952
E21 [13], 37 nM | – | 0.918
E21 [13], 111.1 nM | – | 1.01
E21 [13], 333.3 nM | – | 0.971
E21 [13], 1000 nM | – | 1.02
E21 [13], 3000 nM | – | 0.969
E28 [2], 4.1 nM | 0.47 | –
E28 [2], 12.3 nM | 0.575 | –
E28 [2], 37 nM | 0.783 | –
E28 [2], 111.1 nM | 0.619 | –
E28 [2], 333.3 nM | 0.437 | –
E28 [2], 1000 nM | 0.666 | –
E28 [2], 3000 nM | 1.36 | –
E28 [9], 4.1 nM | – | 1.02
E28 [9], 12.3 nM | – | 1.13
E28 [9], 37 nM | – | 1.02
E28 [9], 111.1 nM | – | 0.97
E28 [9], 333.3 nM | – | 1.02
E28 [9], 1000 nM | – | 1.13
E28 [9], 3000 nM | – | 0.967
E31 [5], 4.1 nM | 0.45 | –
E31 [5], 12.3 nM | 0.684 | –
E31 [5], 37 nM | 0.77 | –
E31 [5], 111.1 nM | 0.32 | –
E31 [5], 333.3 nM | 0.513 | –
E31 [5], 1000 nM | 0.709 | –
E31 [5], 3000 nM | 0.756 | –
E31 [12], 4.1 nM | – | 0.929
E31 [12], 12.3 nM | – | 1.11
E31 [12], 37 nM | – | 1.1
E31 [12], 111.1 nM | – | 0.966
E31 [12], 333.3 nM | – | 1.09
E31 [12], 1000 nM | – | 1.04
E31 [12], 3000 nM | – | 0.936
E34 [7], 4.1 nM | 0.666 | –
E34 [7], 12.3 nM | 0.79 | –
E34 [7], 37 nM | 0.595 | –
E34 [7], 111.1 nM | 1.02 | –
E34 [7], 333.3 nM | 0.595 | –
E34 [7], 1000 nM | 0.635 | –
E34 [7], 3000 nM | 0.793 | –
E34 [14], 4.1 nM | – | 1.02
E34 [14], 12.3 nM | – | 0.86
E34 [14], 37 nM | – | 0.979
E34 [14], 111.1 nM | – | 1.21
E34 [14], 333.3 nM | – | 1.01
E34 [14], 1000 nM | – | 0.93
E34 [14], 3000 nM | – | 1.06
E57 [4], 4.1 nM | 0.43 | –
E57 [4], 12.3 nM | 0.735 | –
E57 [4], 37 nM | 0.539 | –
E57 [4], 111.1 nM | 0.532 | –
E57 [4], 333.3 nM | 0.511 | –
E57 [4], 1000 nM | 0.762 | –
E57 [4], 3000 nM | 0.602 | –
E57 [11], 4.1 nM | – | 1
E57 [11], 12.3 nM | – | 1.12
E57 [11], 37 nM | – | 0.932
E57 [11], 111.1 nM | – | 0.961
E57 [11], 333.3 nM | – | 0.943
E57 [11], 1000 nM | – | 0.925
E57 [11], 3000 nM | – | 0.915
FT3469 [3], 4.1 nM | 0.821 | –
FT3469 [3], 12.3 nM | 1.41 | –
FT3469 [3], 37 nM | 0.766 | –
FT3469 [3], 111.1 nM | 1.05 | –
FT3469 [3], 333.3 nM | 0.567 | –
FT3469 [3], 1000 nM | 0.989 | –
FT3469 [3], 3000 nM | 0.744 | –
FT3469 [10], 4.1 nM | – | 1.13
FT3469 [10], 12.3 nM | – | 1.1
FT3469 [10], 37 nM | – | 1.05
FT3469 [10], 111.1 nM | – | 1.15
FT3469 [10], 333.3 nM | – | 0.937
FT3469 [10], 1000 nM | – | 1.01
FT3469 [10], 3000 nM | – | 0.981
